Source: patent US11007191B2, “Pharmaceutical compositions and dosage forms” (IGNYTA, INC., priority 2017, dated 2021)
In brackets after ≈: the same amount, converted by molar mass.

Assays:
[1] = gastric-to-intestinal (GB/IB) two-stage dissolution test; assay type: physicochemical; details: Example 5, GB stage, 75 mL 0.01M HCl, 100 mg nominal dose
Description: A two-stage dissolution test was also conducted on all four coating weights to determine if gastric exposure affected performance.
Gastric-to-intestinal (GB-IB) non-sink dissolution test: The formulation having a 50% theoretical coating weight was tested in a GB-IB non-sink dissolution test as described in the table below:

[2] = non-sink dissolution in pH 6.5 PBS with 0.5% SIF, USP Apparatus II; assay type: physicochemical; details: Example 5; 1 mg/mL in PBS pH 6.5 with 0.5% SIF, 37° C., 250 rpm
Description: The performance of all four coating weights was evaluated by dissolution in pH 6.5 phosphate buffered saline (PBS) containing 0.5% SIF powder.

[3] = amorphous solubility in pH 6.5 PBS containing 0.5% SIF; assay type: physicochemical; details: phosphate buffered saline with 0.5% SIF powder, fassif; pH 6.5 PBS containing 0.5% SIF powder; read-out: approximate amorphous solubility
[4] = solubility in solvents for fluid bed coating; assay type: physicochemical
Description: The solutions included 80/20 acetone/water, 95/5 acetone/water, 90/10 acetone/water, methyl ethyl ketone, acetone and methanol at 40° C. […] The lab temperature was monitored and ranged from 17° C. to 25° C., fluctuating with time of day during testing.

[5] = test system: various forms of cancer having at least one molecular alteration in one or more of ALK, ROS1, TrkA, TrkB and TrkC; details: early clinical studies, patients with alteration in ALK; cited from earlier work
TrkC = TrkC (Homo sapiens, UniProt Q16288); details: background statement; cited from earlier work
[6] = biological target: anaplastic lymphoma kinase (ALK) (Homo sapiens, UniProt Q9UM73); details: background statement; cited from earlier work
[7] = single-dose food effect study in dogs; assay type: in vivo, dog; details: formulation that did not comprise at least one polymer
Text: Such food effects can cause difficulty during human testing of drugs as the fed or fasted condition of the patient can cause exposure or bioavailability of drugs to vary widely.

TrkB = TrkB (Homo sapiens, UniProt Q16620); details: background statement; cited from earlier work
Chain of TrkB (Q16620 32-822): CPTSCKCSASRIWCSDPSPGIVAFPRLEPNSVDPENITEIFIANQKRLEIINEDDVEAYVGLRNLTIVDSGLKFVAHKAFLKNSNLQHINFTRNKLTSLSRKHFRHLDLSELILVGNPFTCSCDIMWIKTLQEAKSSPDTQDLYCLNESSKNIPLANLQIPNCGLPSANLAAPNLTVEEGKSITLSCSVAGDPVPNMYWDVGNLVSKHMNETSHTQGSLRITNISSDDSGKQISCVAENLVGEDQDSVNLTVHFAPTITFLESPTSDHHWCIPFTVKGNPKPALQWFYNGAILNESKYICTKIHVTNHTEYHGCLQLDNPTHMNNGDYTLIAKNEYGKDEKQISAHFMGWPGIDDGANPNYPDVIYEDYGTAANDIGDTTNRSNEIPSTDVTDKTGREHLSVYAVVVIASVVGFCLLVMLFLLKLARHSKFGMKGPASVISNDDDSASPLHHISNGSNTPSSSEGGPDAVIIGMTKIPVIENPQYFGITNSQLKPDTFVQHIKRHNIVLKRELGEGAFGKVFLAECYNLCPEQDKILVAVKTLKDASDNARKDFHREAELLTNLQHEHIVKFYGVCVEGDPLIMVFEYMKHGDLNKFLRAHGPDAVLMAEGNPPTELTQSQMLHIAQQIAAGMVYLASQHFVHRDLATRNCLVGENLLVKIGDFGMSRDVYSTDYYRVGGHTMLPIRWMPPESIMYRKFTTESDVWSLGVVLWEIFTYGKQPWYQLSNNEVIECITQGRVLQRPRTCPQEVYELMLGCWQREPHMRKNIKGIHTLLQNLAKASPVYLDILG

Chain of anaplastic lymphoma kinase (ALK) (Q9UM73 19-1620): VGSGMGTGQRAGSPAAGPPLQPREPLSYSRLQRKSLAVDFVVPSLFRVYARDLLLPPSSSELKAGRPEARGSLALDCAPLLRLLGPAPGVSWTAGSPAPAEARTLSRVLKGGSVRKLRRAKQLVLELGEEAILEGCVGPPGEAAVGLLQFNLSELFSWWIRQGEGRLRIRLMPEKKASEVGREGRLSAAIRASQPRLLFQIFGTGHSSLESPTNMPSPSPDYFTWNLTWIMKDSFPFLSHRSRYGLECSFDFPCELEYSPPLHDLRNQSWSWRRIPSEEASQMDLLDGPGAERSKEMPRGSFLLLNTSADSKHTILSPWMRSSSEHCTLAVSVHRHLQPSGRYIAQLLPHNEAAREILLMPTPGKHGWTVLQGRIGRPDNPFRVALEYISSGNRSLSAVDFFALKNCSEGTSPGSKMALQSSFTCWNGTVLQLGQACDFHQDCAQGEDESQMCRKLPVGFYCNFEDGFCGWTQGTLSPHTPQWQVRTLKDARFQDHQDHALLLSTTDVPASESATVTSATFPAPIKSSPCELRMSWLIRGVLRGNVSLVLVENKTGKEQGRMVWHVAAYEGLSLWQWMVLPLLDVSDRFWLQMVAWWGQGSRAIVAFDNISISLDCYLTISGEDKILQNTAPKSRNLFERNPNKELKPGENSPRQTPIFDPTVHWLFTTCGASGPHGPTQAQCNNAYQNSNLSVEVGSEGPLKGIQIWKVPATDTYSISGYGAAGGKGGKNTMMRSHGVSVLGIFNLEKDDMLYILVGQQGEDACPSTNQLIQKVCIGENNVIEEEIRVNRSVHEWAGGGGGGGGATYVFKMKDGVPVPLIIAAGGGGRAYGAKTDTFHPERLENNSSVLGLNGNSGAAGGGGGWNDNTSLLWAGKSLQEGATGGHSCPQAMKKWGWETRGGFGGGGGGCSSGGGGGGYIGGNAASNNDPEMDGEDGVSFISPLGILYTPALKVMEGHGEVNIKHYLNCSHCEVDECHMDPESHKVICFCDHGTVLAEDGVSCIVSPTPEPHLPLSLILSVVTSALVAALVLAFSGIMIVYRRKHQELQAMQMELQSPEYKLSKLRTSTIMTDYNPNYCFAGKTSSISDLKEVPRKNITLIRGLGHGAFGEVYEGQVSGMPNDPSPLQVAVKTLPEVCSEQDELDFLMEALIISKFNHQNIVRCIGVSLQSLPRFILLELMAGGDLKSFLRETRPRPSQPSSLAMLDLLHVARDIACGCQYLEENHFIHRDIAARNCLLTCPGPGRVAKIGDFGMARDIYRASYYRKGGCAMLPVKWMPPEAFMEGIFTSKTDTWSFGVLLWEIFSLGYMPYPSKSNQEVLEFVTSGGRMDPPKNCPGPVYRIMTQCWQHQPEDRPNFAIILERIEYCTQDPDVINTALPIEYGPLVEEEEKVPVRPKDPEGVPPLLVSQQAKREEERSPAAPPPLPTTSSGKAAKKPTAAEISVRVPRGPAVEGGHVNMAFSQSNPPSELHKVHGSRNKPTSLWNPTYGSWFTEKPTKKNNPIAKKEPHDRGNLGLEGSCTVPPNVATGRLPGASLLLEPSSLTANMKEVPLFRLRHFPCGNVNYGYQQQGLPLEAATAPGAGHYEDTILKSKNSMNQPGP
Chain of TrkC (Q16288 32-839): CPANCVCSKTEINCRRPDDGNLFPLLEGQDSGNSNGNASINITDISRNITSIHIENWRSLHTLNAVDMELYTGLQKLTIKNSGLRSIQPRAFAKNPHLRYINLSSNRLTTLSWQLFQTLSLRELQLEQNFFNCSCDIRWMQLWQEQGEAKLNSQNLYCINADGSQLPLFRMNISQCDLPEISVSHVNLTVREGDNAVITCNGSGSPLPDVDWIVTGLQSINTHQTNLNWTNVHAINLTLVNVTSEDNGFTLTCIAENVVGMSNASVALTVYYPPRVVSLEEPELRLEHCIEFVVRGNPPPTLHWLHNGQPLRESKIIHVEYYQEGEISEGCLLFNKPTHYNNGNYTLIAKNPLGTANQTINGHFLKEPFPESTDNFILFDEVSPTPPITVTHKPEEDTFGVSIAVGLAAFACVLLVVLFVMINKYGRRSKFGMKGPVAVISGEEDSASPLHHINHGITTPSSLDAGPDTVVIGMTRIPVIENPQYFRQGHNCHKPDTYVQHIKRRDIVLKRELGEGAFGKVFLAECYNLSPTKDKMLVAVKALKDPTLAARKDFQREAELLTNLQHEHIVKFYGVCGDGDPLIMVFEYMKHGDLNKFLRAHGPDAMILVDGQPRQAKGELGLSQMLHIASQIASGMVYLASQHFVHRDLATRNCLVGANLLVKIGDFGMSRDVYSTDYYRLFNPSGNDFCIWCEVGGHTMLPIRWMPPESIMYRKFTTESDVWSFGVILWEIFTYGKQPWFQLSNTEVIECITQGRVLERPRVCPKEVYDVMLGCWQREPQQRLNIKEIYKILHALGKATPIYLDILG

Row | SMILES | dose reached in the pH 2.0 media [1] | dose released within about 75 minutes [2] | solubility [3] [µg/mL] | solubility in acetone/water solutions ([4]; 80/20, 95/5, 90/10 acetone/water, for 24 hours, lab temperature 17-25° C.) | time until completely dissolved in acetone/water solutions ([4]; approximately 170 mg per mL of solvent) [min] | antitumor effects in patients [5] | inhibition of TrkC (TrkC) | inhibition of ALK [6] | exposure levels under fed conditions compared to fasting conditions [7] | inhibition of TrkB (TrkB)
1 | CN1CCN(c2ccc(C(=O)Nc3n[nH]c4ccc(Cc5cc(F)cc(F)c5)cc34)c(NC3CCOCC3)c2)CC1 [API, N-[5-(3,5-difluorobenzyl)-1H-indazol-3-yl]-4-(4-methyl-piperazin-1-yl)-2-(tetrahydro-2H-pyran-4-ylamino)-benzamide] | full dose | about 15% | – | – | – | – | – | – | – | –
2 | CN1CCN(c2ccc(C(=O)Nc3n[nH]c4ccc(Cc5cc(F)cc(F)c5)cc34)c(NC3CCOCC3)c2)CC1 [N-[5-(3,5-difluorobenzyl)-1H-indazol-3-yl]-4-(4-methyl-piperazin-1-yl)-2-(tetrahydro-2H-pyran-4-ylamino)-benzamide] | – | – | ~1000 (≈ 1780 µM) | greater than mg/mL | ≤ 30 | antitumor effects | potent inhibitor | potent inhibitor | approximately 2 fold | potent inhibitor
